Measurements reported in PubChem BioAssay AID248 (DTP/NCI, 2004).
Several values for one entry are separate records, joined by “and”; a condition that tells them apart may be missing. Equal values may be shown once. Toxic doses and inconclusive results are not listed. Rule as the data show it: active = T/C of 150% or more; inactive = T/C below 125%.

Tested on: L1210 leukemia ip in BDF1 mice, survival T/C
Test: NCI In Vivo Anticancer Drug Screen. Data for tumor model L1210 Leukemia (intraperitoneal) in B6D2F1 (BDF1) mice
Settings: endpoint: mean survival time, higher = longer survival
Outline: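 Value reflects the ratio of survival in compound-treated mice to survival in vehicle-treated controls, with both groups carrying the same transplanted tumor.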

[1] = dose: 100.0 mg/kg/injection, schedule: Q04DX003 (ip), vehicle: Klucel (hydroxypropylcellulose) (HPC)
[2] = dose: 200.0 mg/kg/injection, schedule: Q04DX003 (ip), vehicle: Klucel (hydroxypropylcellulose) (HPC)
[3] = dose: 400.0 mg/kg/injection, schedule: Q04DX003 (ip), vehicle: Klucel (hydroxypropylcellulose) (HPC)
[4] = dose: 100.0 mg/kg/injection, schedule: Q01DX009 (ip), vehicle: Klucel (hydroxypropylcellulose) (HPC)
[5] = dose: 200.0 mg/kg/injection, schedule: Q01DX009 (ip), vehicle: Klucel (hydroxypropylcellulose) (HPC)
[6] = dose: 400.0 mg/kg/injection, schedule: Q01DX009 (ip), vehicle: Klucel (hydroxypropylcellulose) (HPC)
[7] = dose: 50.0 mg/kg/injection, schedule: Q01DX001 (ip), vehicle: carboxymethylcellulose (CMC)
[8] = dose: 100.0 mg/kg/injection, schedule: Q01DX001 (ip), vehicle: saline
[9] = dose: 200.0 mg/kg/injection, schedule: Q01DX001 (ip), vehicle: saline
[10] = dose: 400.0 mg/kg/injection, schedule: Q01DX001 (ip), vehicle: saline
[11] = dose: 50.0 mg/kg/injection, schedule: Q01DX009 (ip), vehicle: Klucel (hydroxypropylcellulose) (HPC)
[12] = dose: 50.0 mg/kg/injection, schedule: Q01DX009 (ip), vehicle: saline
[13] = dose: 100.0 mg/kg/injection, schedule: Q01DX009 (ip), vehicle: saline
[14] = dose: 25.0 mg/kg/injection, schedule: Q04DX003 (ip), vehicle: saline
[15] = dose: 50.0 mg/kg/injection, schedule: Q04DX003 (ip), vehicle: saline
[16] = dose: 100.0 mg/kg/injection, schedule: Q04DX003 (ip), vehicle: saline with Tween-80
[17] = dose: 100.0 mg/kg/injection, schedule: Q01DX009 (ip), vehicle: saline with Tween-80
[18] = dose: 200.0 mg/kg/injection, schedule: Q01DX009 (ip), vehicle: saline with Tween-80
[19] = dose: 400.0 mg/kg/injection, schedule: Q01DX009 (ip), vehicle: saline with Tween-80

Measured: T/C

Cc1ccccc1N=Cc1cc(Cl)ccc1O
inactive: dose: 100.0 mg/kg/injection, schedule: Q01DX001 (ip), vehicle: Klucel (hydroxypropylcellulose) (HPC) 97 % of control | [1] 88 % of control | dose: 200.0 mg/kg/injection, schedule: Q01DX001 (ip), vehicle: Klucel (hydroxypropylcellulose) (HPC) 95 % of control | [2] 97 % of control | dose: 400.0 mg/kg/injection, schedule: Q01DX001 (ip), vehicle: Klucel (hydroxypropylcellulose) (HPC) 93 % of control | [3] 101 % of control

Cc1cccc(Cl)c1NC(=O)Nc1c(C)n(C)n(-c2ccccc2)c1=O
inactive: [4] 100 % of control | [5] 102 % of control | [6] 100 % of control

O=NN(CCI)C(=O)NCCI
inactive: dose: 18.75 mg/kg/injection, schedule: Q01DX001 (ip), vehicle: carboxymethylcellulose (CMC) 96 % of control | dose: 37.5 mg/kg/injection, schedule: Q01DX001 (ip), vehicle: carboxymethylcellulose (CMC) 98 % of control | [7] 96 % of control | dose: 75.0 mg/kg/injection, schedule: Q01DX001 (ip), vehicle: carboxymethylcellulose (CMC) 100 % of control | [8] 103 % of control | [9] 110 % of control

Cc1ccc2c3c1C(O)C(C(N)=O)C3CCS2 (configuration not stated)
inactive: [9] 89 % of control | [10] 106 % of control

COc1ccc(C(=O)CC(O)(C(F)(F)F)C(F)(F)F)cc1F
inactive: [1] 103 % of control | [2] 106 % of control | [3] 95 % of control

ClC(Cl)=C1C(Cl)=C(Cl)C(Cl)=C1Cl
inactive: [11] 97 % of control | dose: 50.0 mg/kg/injection, schedule: Q04DX003 (ip), vehicle: Klucel (hydroxypropylcellulose) (HPC) 96 % of control | [4] 100 % of control | [1] 96 % of control | [5] 94 % of control | [2] 93 % of control

Cc1cc(-c2ccccc2O)nc(N(C)CC(=O)O)n1
inactive: dose: 100.0 mg/kg/injection, schedule: Q04DX002 (ip), vehicle: Klucel (hydroxypropylcellulose) (HPC) 94 % of control | dose: 200.0 mg/kg/injection, schedule: Q04DX002 (ip), vehicle: Klucel (hydroxypropylcellulose) (HPC) 98 % of control | dose: 400.0 mg/kg/injection, schedule: Q04DX002 (ip), vehicle: Klucel (hydroxypropylcellulose) (HPC) 96 % of control

COc1ccc(C(=O)CCCC(=O)O)cc1
inactive: [7] 105 % of control | dose: 100.0 mg/kg/injection, schedule: Q01DX001 (ip), vehicle: carboxymethylcellulose (CMC) 100 % of control | dose: 200.0 mg/kg/injection, schedule: Q01DX001 (ip), vehicle: carboxymethylcellulose (CMC) 111 % of control | dose: 400.0 mg/kg/injection, schedule: Q01DX001 (ip), vehicle: carboxymethylcellulose (CMC) 105 % of control

COC(=O)C(=[N+]=[N-])C(F)(F)F
inactive: [12] 95 % of control | [13] 102 % of control | dose: 200.0 mg/kg/injection, schedule: Q01DX009 (ip), vehicle: saline 102 % of control

O=C1C(F)=C(N2CC2)C(=O)C(F)=C1N1CC1
inactive: dose: 0.39 mg/kg/injection, schedule: Q01DX009 (ip), vehicle: Klucel (hydroxypropylcellulose) (HPC) 104 % of control | dose: 0.78 mg/kg/injection, schedule: Q01DX009 (ip), vehicle: Klucel (hydroxypropylcellulose) (HPC) 100 % of control | dose: 0.78 mg/kg/injection, schedule: Q04DX003 (ip), vehicle: alcohol 113 % of control | dose: 1.56 mg/kg/injection, schedule: Q01DX009 (ip), vehicle: Klucel (hydroxypropylcellulose) (HPC) 116 % of control | dose: 1.56 mg/kg/injection, schedule: Q04DX003 (ip), vehicle: alcohol 105 % of control | dose: 3.12 mg/kg/injection, schedule: Q01DX009 (ip), vehicle: Klucel (hydroxypropylcellulose) (HPC) 102 % of control | dose: 3.12 mg/kg/injection, schedule: Q04DX003 (ip), vehicle: alcohol 105 % of control | dose: 6.25 mg/kg/injection, schedule: Q01DX009 (ip), vehicle: Klucel (hydroxypropylcellulose) (HPC) 93 % of control | dose: 6.25 mg/kg/injection, schedule: Q04DX003 (ip), vehicle: saline 110 % of control | dose: 9.2 mg/kg/injection, schedule: Q01DX009 (ip), vehicle: Klucel (hydroxypropylcellulose) (HPC) 98 % of control | dose: 14.0 mg/kg/injection, schedule: Q01DX009 (ip), vehicle: Klucel (hydroxypropylcellulose) (HPC) 87 % of control

CC(=O)OC1CCC2(C)C(CCC3C2CCC2(C)C3CCC2C(C)(C)O)C1 (configuration not stated)
inactive: dose: 100.0 mg/kg/injection, schedule: Q04DX002 (ip), vehicle: DMSO 99 % of control | dose: 200.0 mg/kg/injection, schedule: Q04DX002 (ip), vehicle: DMSO 92 % of control | dose: 400.0 mg/kg/injection, schedule: Q04DX002 (ip), vehicle: DMSO 92 % of control

COc1ccc(Cl)cc1NC(=O)c1ccc(C(=O)Nc2cc(Cl)ccc2OC)cc1
inactive: [11] 109 % of control | [4] 90 % of control | [5] 86 % of control and 92 % of control | [6] 94 % of control

Cc1cc(Cl)nc(Nc2nc3cc(Cl)c(Cl)cc3[nH]2)n1
inactive: dose: 12.5 mg/kg/injection, schedule: Q01DX009 (ip), vehicle: acetone 87 % of control and 92 % of control | dose: 12.5 mg/kg/injection, schedule: Q04DX003 (ip), vehicle: saline 95 % of control and 112 % of control | dose: 25.0 mg/kg/injection, schedule: Q01DX009 (ip), vehicle: acetone 87 % of control | [14] 94 % of control and 95 % of control | dose: 50.0 mg/kg/injection, schedule: Q01DX009 (ip), vehicle: acetone 88 % of control | [15] 94 % of control and 101 % of control | [8] 91 % of control | [9] 93 % of control | [10] 91 % of control

Cc1cc(-c2ccccc2)c(-c2ccccn2)c2ccccc12
inactive: [1] 96 % of control | [2] 91 % of control | [3] 86 % of control

NC(=O)CCCCCCCC(N)=O
inactive: [1] 89 % of control | [2] 89 % of control | [3] 94 % of control

COc1ccc2c(c1)C/C(=N\O)C2=O
inactive: [16] 102 % of control

NC(=O)C1=CNCCC1
inactive: dose: 6.25 mg/kg/injection, schedule: Q01DX001 (ip), vehicle: saline 98 % of control | dose: 12.5 mg/kg/injection, schedule: Q01DX001 (ip), vehicle: saline 104 % of control | dose: 25.0 mg/kg/injection, schedule: Q01DX001 (ip), vehicle: saline 101 % of control | dose: 50.0 mg/kg/injection, schedule: Q01DX001 (ip), vehicle: saline 93 % of control and 118 % of control | [8] 114 % of control | [9] 109 % of control | [10] 118 % of control

CC(N)Cc1cn(C)c2ccccc12 (configuration not stated)
inactive: dose: 6.25 mg/kg/injection, schedule: Q01DX009 (ip), vehicle: saline 96 % of control | dose: 12.5 mg/kg/injection, schedule: Q01DX009 (ip), vehicle: saline 105 % of control | dose: 25.0 mg/kg/injection, schedule: Q01DX009 (ip), vehicle: saline 103 % of control | [14] 101 % of control | [12] 105 % of control | [15] 95 % of control | [13] 97 % of control | dose: 100.0 mg/kg/injection, schedule: Q04DX003 (ip), vehicle: saline 104 % of control

Oc1ccc(C2N(c3ccccc3)CCN2c2ccccc2)cc1
inactive: [17] 111 % of control | [16] 92 % of control | [18] 103 % of control | dose: 200.0 mg/kg/injection, schedule: Q04DX003 (ip), vehicle: saline with Tween-80 97 % of control | [19] 89 % of control | dose: 400.0 mg/kg/injection, schedule: Q04DX003 (ip), vehicle: saline with Tween-80 101 % of control

Cc1cc(Br)ccc1N
inactive: [17] 99 % of control | [18] 95 % of control | [19] 99 % of control

CCOC(OCC)C(C)(C)CNC
inactive: dose: 100.0 mg/kg/injection, schedule: Q01DX001 (ip), vehicle: saline sonified 90 % of control | dose: 200.0 mg/kg/injection, schedule: Q01DX001 (ip), vehicle: saline sonified 101 % of control | dose: 400.0 mg/kg/injection, schedule: Q01DX001 (ip), vehicle: saline sonified 107 % of control
